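Cultured in 96-well plates, cells were exposed to test compound for 48 hours across five concentrations. TGI: concentration producing complete growth inhibition.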 Some results are limits rather than exact numbers.

Common to all, as to test: inhibition of tumour cell growth, NCI panel, 48 h
The subject of assay [1] is COLO 205 colon.
The test system of assay [2] is EKVX NSCLC.
Assay [3] has as its system HCC-2998 colon.
The subject of assay [4] is HOP-62 NSCLC.
Assay [5] deals with MCF7 breast.
In assay [6] the test system is MDA-MB-231 breast.
For assay [7], the system named is MDA-MB-435.
Assay [8] has as its system NCI-H460 lung.
The test system of assay [9] is OVCAR-5 ovarian.
The subject of assay [10] is SF-268 CNS.
For assay [11], the system named is SK-MEL-28 melanoma.
The test system of assay [12] is SNB-19 CNS.
Assay [13] relates to SNB-75 CNS.
The test system of assay [14] is SR leukemia.
Assay [15] has as its system T-47D breast.
Assay [16] has as its system TK-10 renal.
For assay [17], the system named is U251 CNS.
Assay [18] deals with UACC-62 melanoma.
The test system of assay [19] is HCT-116 colon.
Assay [20] deals with KM12 colon.

Consider `CCN1CCC(O)(/C=C/c2ccc(C)cc2C)C(C(=O)/C=C/c2ccc(C)cc2C)C1` (centres undefined), for which the TGI was 4.05 µM in assay [1]; more than 26 µM in assay [2]; 3.37 µM in assay [3]; 8.54 µM in assay [4]; 24.4 µM in [5]; 4.32 µM in assay [6]. The TGI in [7] worked out at 7.95 µM; in assay [8], 3.32 µM; in [9], 14.7 µM; in [10], 9.12 µM; in [11], 10.9 µM; in assay [12] it was 20.3 µM. Besides, the TGI in assay [13] was 36.6 µM; in [14], 7.94 µM; in [15] it was 8.01 µM; in assay [16], 3.41 µM; in assay [17], 11.7 µM; in assay [18] it was 11 µM.
Consider `[N-]=[N+]=NC1=C(c2ccccn2)C(=O)c2cccc3cccc1c23`, for which the TGI in [1], in assay [3], in [19], in assay [4], in [20] and in assay [5] was more than 100 µM each time. Also, the TGI was more than 100 µM in assay [6]; more than 100 µM in [7]; more than 100 µM in assay [8]; more than 100 µM in assay [9]; 65.9 µM in assay [10]; more than 100 µM in assay [11]. In addition, the TGI in [12], in assay [13], in assay [14], in assay [15], in assay [16] and in assay [17] was more than 100 µM in each case. Moreover, the TGI in assay [18] is more than 100 µM.
As to `COc1ccc2c(cnc3c4cc(OC)c(OC)cc4ccc23)c1`, the TGI in assay [1], in assay [2], in [3], in assay [19], in [4] and in assay [20] was more than 100 µM in each case. Further, the TGI in assay [5], in [6], in assay [7], in [8], in assay [9] and in assay [10] was more than 100 µM in each case. In addition, the TGI in [11], in [12], in assay [14], in [15], in assay [16] and in assay [17] was more than 100 µM in each case. In assay [18], this molecule had a TGI of more than 100 µM.
With `Cc1nc2sc3ccccc3n2c(=O)c1N=Nc1ccc(Cl)cc1`, the TGI in assay [1], in assay [2], in assay [19], in assay [4], in assay [20] and in [5] was more than 100 µM in each case. Moreover, the TGI in assay [6], in assay [7], in assay [8], in assay [9], in [10] and in assay [11] was more than 100 µM each time. The TGI in [12], in assay [13], in assay [14], in [15], in assay [16] and in [17] was more than 100 µM throughout. The TGI in assay [18] is more than 100 µM.
As for `CCC1(C)C=Cc2c(cc(O)c3c(=O)c4ccccc4n(C)c23)O1` (centres undefined), the TGI in assay [1], in assay [2], in assay [3], in assay [19], in assay [4] and in [20] was more than 10 µM in each case. Besides, the TGI in assay [5], in assay [6], in assay [7], in [8], in [9] and in assay [10] was more than 10 µM each time. The TGI in assay [11], in assay [12], in assay [13], in assay [15], in assay [16] and in assay [17] was more than 10 µM each time. The molecule further displayed a TGI in [18] of more than 10 µM.
On to `O=C1C(=Cc2ccccc2O)N=C(c2ccccc2)N1n1c(-c2ccccc2)nc2ccccc2c1=O`, for which the TGI is more than 100 µM in assay [1]; more than 100 µM in assay [2]; 89.2 µM in assay [3]; 89.8 µM in [19]; 96.8 µM in [4]; 98.4 µM in assay [20]. Further, the TGI in assay [5] is 64.3 µM; in [6], more than 100 µM; in assay [7], more than 100 µM; in assay [8] it was more than 100 µM; in assay [10] it was 88.3 µM; in [11] it was more than 100 µM. Also, the TGI in assay [12] was more than 100 µM; in assay [13] it was 87.8 µM; in [14], more than 100 µM; in [15], 93 µM; in [16], more than 100 µM; in assay [18], more than 100 µM.
`C=C1C(=O)C=C[C@]2(C)CC[C@H]3C(=C)C(=O)O[C@@H]3[C@@H]12`: the TGI was 2.24 µM in [1]; 8.7 µM in assay [2]; 0.483 µM in assay [19]; 6.36 µM in assay [4]; 3.53 µM in assay [20]; 13.3 µM in assay [5]. In addition, the TGI in [6] turned out to be 11.7 µM; in assay [7], 3.21 µM; in assay [8], 33.1 µM; in assay [9] it was 3 µM; in [10], 11.7 µM; in assay [11], 4.04 µM. Moreover, the TGI in assay [12] came out at 87.6 µM; in [14], 6.11 µM; in assay [15] it was 20.7 µM; in assay [16] it was 1.98 µM; in assay [17], 5.75 µM; in [18], 4.29 µM.
Take `Cn1c2ccccc2c(=O)c2cccc(C(=O)NC(CCCN=C(N)N)C(=O)O)c21` (centres undefined): the TGI in assay [1], in assay [2], in assay [3], in assay [19], in assay [4] and in assay [20] was more than 100 µM in each case. In addition, the TGI in assay [5], in [6], in assay [7], in assay [8], in assay [9] and in assay [10] was more than 100 µM each time. In addition, the TGI in [11], in assay [12], in assay [13], in assay [15], in assay [16] and in assay [17] was more than 100 µM each time. For the same molecule, the TGI in assay [18] is more than 100 µM.
For `CN1[C@@H]2C[C@@H](OC(=O)[C@H](CO)c3ccccc3)C[C@H]1[C@@H]1O[C@@H]12`, the TGI in assay [1], in assay [2], in assay [19], in assay [4], in assay [20] and in [5] was more than 100 µM throughout. Also, the TGI in assay [6], in assay [7], in [9], in assay [11], in assay [14] and in assay [15] was more than 100 µM throughout. Further, the TGI in [16] and in [18] was more than 100 µM each time.
As to `CC(C)=CCNc1ncnc2c1ncn2CCC#N`, the TGI in assay [1], in assay [3], in assay [19], in assay [4], in assay [20] and in assay [5] was more than 100 µM throughout. Further, the TGI in assay [6], in [7], in assay [8], in assay [9], in assay [10] and in assay [11] was more than 100 µM in each case. The TGI in assay [12], in assay [13], in assay [14], in assay [15], in assay [16] and in assay [17] was more than 100 µM throughout. For the same molecule, the TGI in assay [18] is more than 100 µM.
Consider `N#CC1=C(N)N(c2ccccc2)C(c2ccccc2)C1(C#N)C#N` (centres undefined), for which the TGI in assay [1] is 36.1 µM; in assay [2] it was 43.8 µM; in [3], 30.2 µM; in [19], 29.4 µM; in assay [4] it was 36.8 µM; in [20], 30.9 µM. The TGI amounted to 31.7 µM in assay [5]; 29.8 µM in assay [6]; 35.6 µM in assay [7]; 37.3 µM in assay [9]; 55.4 µM in assay [10]; 31.1 µM in assay [11]. Moreover, the TGI in assay [12] was found to be 43.2 µM; in assay [13] it was 42 µM; in assay [14], 40.5 µM; in [15] it was 24.4 µM; in assay [16], 31.8 µM; in [17], 32.4 µM. The TGI in assay [18] turned out to be 45.7 µM.
Take `Cn1c2ccccc2c(=NNc2cccc(C(=O)O)c2)c2ccccc21`: the TGI stood at 28.5 µM in assay [1]; 28.7 µM in [2]; 14.9 µM in [3]; 28.2 µM in assay [19]; 47.8 µM in [4]; 47.5 µM in [20]. For the same molecule, the TGI was found to be 11.7 µM in assay [5]; 41 µM in assay [6]; 27.1 µM in assay [7]; 22 µM in assay [8]; 41.6 µM in assay [9]; 39 µM in assay [10]. Besides, the TGI in [11] was 35.7 µM; in assay [12], more than 100 µM; in assay [13] it was 54 µM; in assay [15] it was 40.9 µM; in [16], 59.2 µM; in assay [17], 28.7 µM. Further, the TGI in assay [18] is 39.8 µM.
`O=C1/C(=C/c2ccc(Cl)cc2)CSc2ccccc21`: the TGI in [1] was 64.3 µM; in [4], 63.9 µM; in [20] it was more than 100 µM; in [5] it was 9.35 µM; in assay [6] it was 55.9 µM; in assay [7], 20.7 µM. Besides, the TGI in [8] was more than 100 µM; in assay [10], 73 µM; in assay [11], 44.1 µM; in [12], 39.4 µM; in assay [13], 72.7 µM; in assay [14] it was more than 100 µM. Besides, the TGI is 58.3 µM in assay [15], more than 100 µM in assay [16], 24.6 µM in assay [17] and 14.6 µM in assay [18].
On to `CC(C)(C)C(=O)CC1=Nc2ccccc2SC1(O)CC(=O)C(C)(C)C` (centres undefined), for which the TGI in [1] is 29.8 µM; in assay [2], 59.6 µM; in assay [3] it was 40.5 µM; in assay [19], 53.7 µM; in assay [4], 76.2 µM; in assay [20] it was more than 100 µM. In addition, the TGI in [5] is 61.2 µM; in [6], 36.2 µM; in assay [7], 64.5 µM; in assay [8], 38.5 µM; in assay [9] it was 69 µM; in assay [10] it was 81.1 µM. The TGI in assay [11] was 66 µM; in assay [12] it was more than 100 µM; in [14], 33 µM; in assay [15], 67.8 µM; in assay [16], more than 100 µM; in assay [17], more than 100 µM. The same molecule showed a TGI in assay [18] of 31.3 µM.
Regarding `CC(=O)OCC1OC(n2c3c(cc(C#N)c2=S)CCCCC3)C(OC(C)=O)C(OC(C)=O)C1OC(C)=O` (centres undefined), the TGI in [1], in assay [3], in assay [19], in assay [4], in assay [20] and in assay [5] was more than 100 µM each time. Also, the TGI in assay [6], in assay [7], in assay [8], in assay [9], in assay [10] and in assay [11] was more than 100 µM each time. Also, the TGI in assay [12], in assay [13], in [14], in assay [15], in [16] and in assay [17] was more than 100 µM in each case. This molecule also gave a TGI in assay [18] of more than 100 µM.

The record behind these values is PubChem BioAssay (NCI).
